“Also recorded” adds a separate entry of the source.

One experiment concerns CD44-deficient mice. The experiment can be described thus: HA challenge in CD44-deficient mice, AHR. Type of experiment: in vivo. The note with it: sHA instillation. Here is the method:
(§1) HA challenge: Sterile, endotoxin-free (0.00008 EU/ml) high molecular weight hyaluronan (HMW-HA) (Healon, AMO, Santa Ana, Calif.) was reconstituted at 0.5 mg/ml in 0.02 M acetate/0.15 M sodium chloride, pH 6.0. For the production of low molecular weight (also known as short-fragment) hyaluronan (sHA), healon was sonicated on ice. Sizes were confirmed by electrophoresis according to known methods (Lee and Cowman Anal Biochem 219(2):278-287, 1994). In some experiments, 50 μl of HMW-HA, sHA, or vehicle were instilled oropharyngeally into isoflurane-anesthetized mice, and AHR was measured invasively 2-4 hours later. In other experiments, 50 μl of HMW-HA or vehicle was instilled 1 hour before and 23 hours after acute ozone exposure, and AHR was measured invasively 24 hours after ozone exposure.
(§2) Airway Physiology: Twenty four hours after the beginning of exposure, tracheas of anesthetized mice (pentobarbital sodium, 60 mg/kg i.p.) were surgically dissected and intubated, mice were paralyzed (pancuronium bromide, […] i.v.) and ventilated with a computer-controlled small animal ventilator (FlexiVent™, SCIREQ, Montreal, Canada) at a tidal volume of 7.5 ml/kg and a positive end-expiratory pressure of 3 cm H2O. Forced oscillation was used for measurements of respiratory mechanics. […]

Experiment [1] deals with naive C57BL/6J mice. Nature of the experiment: Lung lavage cells after sHA instillation. The class given is in vivo. The note with it: compared to vehicle. Here is the method: as §1
Whole lung lavage: Whole lung lavage was performed according to previously described methods (Hollingsworth et al., Am J Respir Crit Care Med 170(2):126-132, 2004). Supernatants were stored at −70° C.

Experiment [2] relates to naive C57BL/6J mice. Nature of the experiment: HA challenge: oropharyngeal instillation of hyaluronan into naive mice, AHR measured invasively. The class given is in vivo. The note with it: 50 μl of 0.5 mg/ml oropharyngeal, AHR 2-4 hours later, compared to vehicle. The procedure:
as §1, §2

The subject of the next experiment is C57BL/6J mice. Nature of the experiment: Ozone-induced AHR, total lung resistance to methacholine (FlexiVent). The conditions noted are these: 50 μl instilled 1 hour before and 23 hours after acute ozone exposure; AHR 24 hours after ozone; vs vehicle. Type of experiment: in vivo. The text has this: Exposure Protocol: C57BL/6J, CD44−/−, IaI−/− or HAS2 transgenic mice (mice that overexpress HAS2) were exposed to either Hepa-filtered air (FA) or ozone. Animals were housed in cages with low-endotoxin bedding, and given water and chow ad libitum. Ozone exposures were two parts per million (ppm) for three hours. The selection of ozone concentration levels in the mouse was based on similar biological responses observed in human exposure studies and published deposition fraction data for 03 in rodent models (Wiester et al., Toxicol Appl Pharmacol 96(1):140-146, 1988). Exposures were performed in 55-liter Hinner chambers with individual animal slots. […] Chamber ozone concentration was monitored continuously with a UV light photometer (1003AH, Dasibi, Glendale, Calif.). […]
HA challenge: Sterile, endotoxin-free (0.00008 EU/ml) high molecular weight hyaluronan (HMW-HA) (Healon, AMO, Santa Ana, Calif.) was reconstituted at 0.5 mg/ml in 0.02 M acetate/0.15 M sodium chloride, pH 6.0. […] In some experiments, 50 μl of HMW-HA, sHA, or vehicle were instilled oropharyngeally into isoflurane-anesthetized mice, and AHR was measured invasively 2-4 hours later. In other experiments, 50 μl of HMW-HA or vehicle was instilled 1 hour before and 23 hours after acute ozone exposure, and AHR was measured invasively 24 hours after ozone exposure. […]

The conditions of experiment [3]: in vivo; cited from earlier work.

short-fragment hyaluronan [sHA]: the “sHA-induced AHR in CD44-deficient mice compared to C57BL/6” value with CD44-deficient mice is on record as “resistant to sHA-induced AHR”. Also, in the experiment on naive C57BL/6J mice [1], the “total cells or cell composition in lung lavage fluid after instillation” value is “significant changes in total cells or cell composition in the lung lavage fluid were not observed; also recorded: a significant change was not observed in any cell type”. In the experiment with naive C57BL/6J mice [2], the “induction of AHR in naive mice” value is given as “induced AHR”.

With “high molecular weight hyaluronan [HMW-HA]”, the “ozone-induced AHR with hyaluronan instilled before and after ozone” value with C57BL/6J mice is given as “significantly ameliorates AHR; also recorded: significant attenuation of AHR”. Besides, the “bronchoconstrictive response in exercise-induced asthma” value in experiment [3] was “attenuate the bronchoconstrictive response”.

These data come from patent US20110236381A1, “INHIBITION OF INTER-ALPHA TRYPSIN INHIBITOR FOR THE TREATMENT OF AIRWAY DISEASE” (priority 2008, published 2011).
